How the values were obtained:
[1] = molecular target: T1, full-length recombinant human NEK7 (Homo sapiens, UniProt Q8TDX7); test: NEK7 enzymatic assay; type: biochemical; settings: recombinant human NEK7, casein substrate, radiolabelled ATP
T1 construct: full-length recombinant human NEK7; GST (N); purchased SignalChem NO9-10G; host or cells: Sf9 insect cells (baculovirus)
Method in brief: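 Full-length GST-tagged human NEK7 from Sf9 cells (assay concentration 70 nM) was used with casein (assay concentration 20 μM) in Hepes pH 7.5 buffer, 1% DMSO, and compound (3-fold dilutions, 10 μM to 0.5 nM) was preincubated 20 min at room temperature. Radiolabelled ATP was added for 2 h, phosphorylation was read on P81 paper, and IC50 was fitted from % activity remaining versus vehicle.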

IL-1β release = IL-1β release assay (THP-1 cells, PMA, LPS, nigericin); type: cell-based; settings: Homo sapiens, LPS 250 ng/mL, nigericin 20 μM, cleaved IL-1β in media
Protocol: Approximately 1.5 million THP-1 cells were plated in each well of a 6-well TC plate and incubated with 40 nM PMA in RPMI (10% FBS, 1% Penstrep) for 24 hours. The media was then removed and cells were rested in RPMI (10% FBS, 1% Penstrep) for 24 hours after which time the media was removed and cells were pre-treated for 2 hours with various concentrations of compounds of interest (typically serial 3-fold dilution in RPMI+5% FBS, concentrations ranging from 1 μM to 0.5 nM) in RPMI (5% FBS). The media was again removed and cells were incubated with 250 ng/mL LPS and compounds of interest (concentrations as above) in RMPI (5% FBS) for 2 hours. The media was removed for a last time and cells were incubated with 20 μM nigericin and compounds of interest (concentrations as above) in Opti-MEM for 30 minutes. Cell media was then collected and the amount of cleaved IL-1β was determined using a JESS instrument (Protein Simple) and standard protocols. Cleaved Il-1β antibody was obtained from Cell Signaling (catalogue #83186S) and was used at 1:20 dilution in antibody diluent 2. Protein Simple 1× anti-Rabbit HRP secondary antibody was used along with Protein Simple luminol and peroxide for chemiluminescent detection. Primary antibody incubation time was increased from 30 minutes to 60 minutes.

T1 sequence (Q8TDX7 whole entry): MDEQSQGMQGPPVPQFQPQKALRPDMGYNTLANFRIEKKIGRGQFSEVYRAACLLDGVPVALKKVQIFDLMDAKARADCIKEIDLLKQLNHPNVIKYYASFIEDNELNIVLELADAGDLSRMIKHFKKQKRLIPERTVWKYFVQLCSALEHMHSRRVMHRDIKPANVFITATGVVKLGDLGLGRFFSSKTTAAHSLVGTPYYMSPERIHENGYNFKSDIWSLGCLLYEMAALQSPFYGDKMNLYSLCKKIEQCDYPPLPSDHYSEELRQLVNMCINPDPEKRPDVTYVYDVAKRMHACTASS

SMILES | IC50 [1] [nM] | IC50 (IL-1β release) [nM]
CN1CCN(Cc2ccc(NC(=O)Nc3ccc(-c4cn(C5CC5)c5ncnc(N)c45)cc3F)cc2OC(F)(F)F)CC1 [Example I-78, 1-(4-(4-amino-7-cyclopropyl-7H-pyrrolo[2,3-d]pyrimidin-5-yl)-2-fluorophenyl)-3-(4-((4-methylpiperazin-1-yl)methyl)-3-(trifluoromethoxy)phenyl)urea] | 100 to 500 | 50 to 250
CC(=O)N1CCN(Cc2ccc(NC(=O)Nc3ccc(-c4cn(C5CC5)c5ncnc(N)c45)cc3F)cc2C(F)(F)F)CC1 [Example I-80, 1-(4-((4-acetylpiperazin-1-yl)methyl)-3-(trifluoromethyl)phenyl)-3-(4-(4-amino-7-cyclopropyl-7H-pyrrolo[2,3-d]pyrimidin-5-yl)-2-fluorophenyl)urea] | 100 to 500 | > 1000
COCCn1cc(-c2ccc(NC(=O)Nc3ccc(CN4CCN(C)CC4)c(C(F)(F)F)c3)c(F)c2)c2c(N)ncnc21 [Example I-81, 1-(4-(4-amino-7-(2-methoxyethyl)-7H-pyrrolo[2,3-d]pyrimidin-5-yl)-2-fluorophenyl)-3-(4-((4-methylpiperazin-1-yl)methyl)-3-(trifluoromethyl)phenyl)urea] | < 100 | < 50
CC(C)N1CCN(Cc2ccc(NC(=O)Nc3ccc(-c4cn(C5CC5)c5ncnc(N)c45)cc3F)cc2C(F)(F)F)CC1 [Example I-63, 1-(4-(4-amino-7-cyclopropyl-7H-pyrrolo[2,3-d]pyrimidin-5-yl)-2-fluorophenyl)-3-(4-((4-isopropylpiperazin-1-yl)methyl)-3-(trifluoromethyl)phenyl)urea] | < 100 | < 50
Nc1ncnc2c1c(-c1ccc(NC(=O)Nc3ccc(CN4CCN(CCO)CC4)c(C(F)(F)F)c3)c(F)c1)cn2C1CC1 [Example I-42, 1-(4-(4-amino-7-cyclopropyl-7H-pyrrolo[2,3-d]pyrimidin-5-yl)-2-fluorophenyl)-3-(4-((4-(2-hydroxyethyl)piperazin-1-yl)methyl)-3-(trifluoromethyl)phenyl)urea] | < 100 | < 50
CN1CCN(Cc2ccc(NC(=O)Nc3ccc(-c4nn(C5CC5)c5ccnc(N)c45)cn3)cc2C(F)(F)F)CC1 [Example I-51, 1-(5-(4-amino-1-cyclopropyl-1H-pyrazolo[4,3-c]pyridin-3-yl)pyridin-2-yl)-3-(4-((4-methylpiperazin-1-yl)methyl)-3-(trifluoromethyl)phenyl)urea] |  | 50 to 250

Second part, the compound after the results:

IC50 [1] [nM] | IC50 (IL-1β release) [nM] | SMILES
 | 250 to 1000 | Nc1ncnc2c1c(-c1ccc(NC(=O)Nc3ccc(CN4CCOCC4)c(C(F)(F)F)c3)c(F)c1)cn2C1CC1 [Example I-32, 1-(4-(4-amino-7-cyclopropyl-7H-pyrrolo[2,3-d]pyrimidin-5-yl)-2-fluorophenyl)-3-(4-(morpholinomethyl)-3-(trifluoromethyl)phenyl)urea]
100 to 500 | 250 to 1000 | CC(=O)N1CCC(Oc2ccc(NC(=O)Nc3ccc(-c4cn(C5CC5)c5ncnc(N)c45)cc3F)cc2C(F)(F)F)CC1 [Example I-82, 1-(4-((1-acetylpiperidin-4-yl)oxy)-3-(trifluoromethyl)phenyl)-3-(4-(4-amino-7-cyclopropyl-7H-pyrrolo[2,3-d]pyrimidin-5-yl)-2-fluorophenyl)urea]
> 2000 | > 1000 | CN1CCN(Cc2ccc(NC(=O)Nc3ccc(-c4cn(C5CC5)c5ncnc(N)c45)cc3F)c(C(F)(F)F)c2)CC1 [Example I-16, 1-(4-(4-amino-7-cyclopropyl-7H-pyrrolo[2,3-d]pyrimidin-5-yl)-2-fluorophenyl)-3-(4-((4-methylpiperazin-1-yl)methyl)-2-(trifluoromethyl)phenyl)urea]
 | 250 to 1000 | CN1CCN(c2ccc(NC(=O)Nc3ccc(-c4cn(C5CC5)c5ncnc(N)c45)cc3F)cc2C(F)(F)F)CC1 [Example I-3]
 | > 1000 | CN1CCC(Oc2ncc(NC(=O)Nc3ccc(-c4cn(C5CC5)c5ncnc(N)c45)cc3F)cc2C(F)(F)F)CC1 [Example I-61, 1-(4-(4-amino-7-cyclopropyl-7H-pyrrolo[2,3-d]pyrimidin-5-yl)-2-fluorophenyl)-3-(6-((1-methylpiperidin-4-yl)oxy)-5-(trifluoromethyl)pyridin-3-yl)urea]

Source: patent US20240317758A1 (Halia Therapeutics, Inc., priority 2021, published 2024)
